The experiment has as its target T1, ORL-1 receptor (Homo sapiens, UniProt P41146).
T1 construct: expressed in transfected cells; host or cells: CHO cells (membrane preparation)
Briefly: Nociceptin binding assay. Conditions: CHO cell membrane preparation expressing the ORL-1 receptor; [125I][Tyr14]nociceptin. How it is done:
CHO cell membrane preparation expressing the ORL-1 receptor (2 mg) was incubated with varying concentrations of [^125I][Tyr ^14]nociceptin (3-500 pM) in a buffer containing 50 mM HEPES (pH7.4), 10 mM NaCl, 1 mM MgCl2, 2.5 mM CaCl2, 1 mg/ml bovine serum albumin and 0.025% bacitracin. In a number of studies, assays were carried out in buffer 50 mM tris-HCl (pH 7.4), 1 mg/ml bovine serum albumin and 0.025% bacitracin. Samples were incubated for 1 h at room temperature (22° C.). Radiolabelled ligand bound to the membrane was harvested over GF/B filters presoaked in 0.1% polyethyleneimine using a Brandell cell harvester and washed five times with 5 ml cold distilled water. Nonspecific binding was determined in parallel by similar assays performed in the presence of 1 μM nociceptin. All assay points were performed in duplicates of total and non-specific binding.
Calculations of Ki were made using methods well known in the art.
T1 sequence (P41146 whole entry): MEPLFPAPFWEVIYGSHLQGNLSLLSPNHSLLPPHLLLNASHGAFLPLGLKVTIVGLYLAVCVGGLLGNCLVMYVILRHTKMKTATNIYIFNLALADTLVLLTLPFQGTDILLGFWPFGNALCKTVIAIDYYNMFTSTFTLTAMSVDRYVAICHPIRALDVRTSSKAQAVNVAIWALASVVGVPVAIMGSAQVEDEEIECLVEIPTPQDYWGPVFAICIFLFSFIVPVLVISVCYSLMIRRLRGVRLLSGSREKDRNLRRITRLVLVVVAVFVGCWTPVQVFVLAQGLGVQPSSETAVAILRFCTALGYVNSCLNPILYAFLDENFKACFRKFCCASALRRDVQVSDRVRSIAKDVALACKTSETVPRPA
`CCc1cnc(C2(O)CC3CCC(C2)N3C(c2ccccc2Cl)c2ccccc2Cl)nc1` (centres unmarked) [Example 2, 8-[Bis(2-chlorophenyl)methyl]-3-(5-ethyl-2-pyrimidinyl)-8-azabicyclo[3.2.1]octan-3-ol]: the Ki worked out at 7.6 nM. For `OC1(c2nccc(N3CCNCC3)n2)CC2CCC(C1)N2C(c1ccccc1Cl)c1ccccc1Cl` (centres unmarked) [Example 3, 8-[Bis(2-chlorophenyl)methyl]-3-[4-(1-piperazinyl)-2-pyrimidinyl]-8-azabicyclo[3.2.1]octan-3-ol] the value was 4 nM. For `OC1(c2ccccn2)CC2CCC(C1)N2C(c1ccccc1Cl)c1ccccc1Cl` (centres unmarked) [Example 4, 8-[Bis(2-Chlorophenyl)methyl]-3-(2-pyridinyl)-8-azabicyclo[3.2.1]octan-3-ol] the value was 4 nM; for `COC1(c2ncccn2)CC2CCC(C1)N2C(c1ccccc1Cl)c1ccccc1Cl` (centres unmarked) [Example 6, 8-[Bis(2-chlorophenyl)methyl]-3-methoxy-3-(2-pyrimidinyl)-8-azabcyclo[3.2.1]octane], 5.4 nM. `Cn1nccc1C1(O)CC2CCC(C1)N2C(c1ccccc1Cl)c1ccccc1Cl` (centres unmarked) [Example 8, 8-[Bis(2-chlorophenyl)methyl]-3-(1-methyl-pyrazol-5-yl)-8-azabicyclo[3.2.1]octan-3-ol]: the Ki was 6 nM. In the case of `OC1(c2cccnn2)CC2CCC(C1)N2C(c1ccccc1Cl)c1ccccc1Cl` (centres unmarked) [Example 11, 8-[Bis(2-chlorophenyl)methyl]-3-(3-pyridazinyl)-8-azabicyclo[3.2.1]octan-3-ol] it was 7 nM; in that of `OC1(c2cnccn2)CC2CCC(C1)N2C(c1ccccc1Cl)c1ccccc1Cl` (centres unmarked) [Example 12, 8-[Bis(2-chlorophenyl)methyl]-3-(2-pyrazinyl)-8-azabicyclo[3.2.1]octan-3-ol], 2 nM; in that of `OC1(c2ccc(Br)cn2)CC2CCC(C1)N2C(c1ccccc1Cl)c1ccccc1Cl` (centres unmarked) [Example 14, 8-[Bis(2-chlorophenyl)methyl]-3-(5-bromo-2-pyridinyl)-8-azabicyclo[3.2.1]octan-3-ol], 1.3 nM.

As usually defined, the Ki is a dissociation constant, usually derived from enzyme kinetics or from competition with a known ligand. A low value points to a stronger hold on the target.

Source of the values: patent publication US6727254B2 (Schering Corporation, priority 2001, dated 2004).
